Reference: patent US10512669B2, “Blockade of inflammatory proteases with cyclic peptides” (The Regents of the University of California, priority 2011, dated 2019)
pIC50: −log10 of the molar value. Bridge positions count the residues as written; N and C are the ends. Peptide text beside a SMILES is read from it.

What was measured:
[1] = biological target: TACE expressed on THP-1 cells (Homo sapiens, UniProt P78536); settings: read-out: IC50 TACE blockade on THP-1 cells; literature study (ref. 1); cited from earlier work
[2] = biological target: recombinant TACE (rTACE, ADAM17) (Homo sapiens, UniProt P78536); test: recombinant TACE fluorometric inhibition assay; assay type: biochemical
[3] = 50 μg/ml in 50 mg/ml human serum albumin, 72 hours, room temperature
in vitro = settings: human, plasma
chimpanzees = test: escalating i.v. doses in adult chimpanzees: toxicity and immunogenicity; settings: two adult chimpanzees

Chain of recombinant TACE (rTACE, ADAM17) (P78536 215-824): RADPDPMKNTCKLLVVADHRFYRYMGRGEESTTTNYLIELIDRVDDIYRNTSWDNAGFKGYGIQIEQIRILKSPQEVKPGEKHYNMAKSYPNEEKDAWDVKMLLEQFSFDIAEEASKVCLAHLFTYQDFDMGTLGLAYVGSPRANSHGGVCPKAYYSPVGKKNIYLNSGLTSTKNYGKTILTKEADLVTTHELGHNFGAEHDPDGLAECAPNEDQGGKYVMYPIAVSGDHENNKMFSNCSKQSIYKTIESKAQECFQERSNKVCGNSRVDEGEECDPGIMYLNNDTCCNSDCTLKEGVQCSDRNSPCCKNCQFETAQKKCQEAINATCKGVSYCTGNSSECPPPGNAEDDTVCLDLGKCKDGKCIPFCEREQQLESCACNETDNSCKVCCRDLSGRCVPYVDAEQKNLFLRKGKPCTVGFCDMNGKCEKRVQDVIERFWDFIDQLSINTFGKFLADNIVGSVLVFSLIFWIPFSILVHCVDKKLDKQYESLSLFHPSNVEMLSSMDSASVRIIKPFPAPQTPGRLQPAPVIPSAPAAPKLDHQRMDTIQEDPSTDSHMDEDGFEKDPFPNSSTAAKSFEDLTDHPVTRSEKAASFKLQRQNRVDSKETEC
Chain of TACE expressed on THP-1 cells (P78536 215-824): as above

Compound: CNC(=O)[C@H](Cc1c[nH]c2ccccc12)NC(=O)[C@@H](CC(=O)NO)CC(C)C [GM6001]
- pIC50 [1]: 5.26

Compound: HNP-4: human α-defensin from neutrophils (VCSCRLVFCRRTELRVGNCLIGGVSFTYCCTRV)
- inhibition of rTACE [2]: neither human α-defensin (HNP-2 (SEQ_ID NO. 31), HNP-4 (SEQ_ID NO. 33)) inhibited rTACE

Compound: HNP-2: human α-defensin from neutrophils (CYCRIPACIAGERRYGTCIYQGRLWAFCC)
- inhibition of rTACE [2]: neither human α-defensin (HNP-2 (SEQ_ID NO. 31), HNP-4 (SEQ_ID NO. 33)) inhibited rTACE

Compound: CC[C@H](C)[C@@H]1NC(=O)[C@@H]2CSSC[C@H](NC(=O)[C@H](CCCNC(=N)N)NC(=O)[C@@H]3CSSC[C@H](NC1=O)C(=O)N[C@@H]([C@@H](C)O)C(=O)N[C@@H](CCCNC(=N)N)C(=O)NCC(=O)N[C@@H](Cc1ccccc1)C(=O)N3)C(=O)N[C@@H](CC(C)C)C(=O)N[C@H]1CSSC[C@H](NC(=O)[C@H](C(C)C)NC(=O)CNC(=O)[C@H](CCCNC(=N)N)NC(=O)[C@H](CCCNC(=N)N)NC1=O)C(=O)N[C@@H](CCCNC(=N)N)C(=O)N2 [RTD-1] (cyclo(GFCRCLCRRGVCRCICTR); disulfide 3-16, 5-14, 7-12 (inferred); ring closure inferred)
- peptide unaltered [3]: more than 95%
- remaining at 72 h, 50 μg/ml (in vitro): > 95%
- antibody to RTD-1 (immunogenicity) (chimpanzees): Neither animal produced an antibody
- clinical chemistry and hematologic laboratory values (chimpanzees; following all injections): within normal limits
